Results as given in PMC8318231, “Rate-of-Kill (RoK) assays to triage large compound sets for Chagas disease drug discovery: Application to GSK Chagas Box” (PLoS Neglected Tropical Diseases, 2021).

How the values were obtained:
[1] = parameters: method as in PMID 25805302; conditions: cited from earlier work
[2] = system: T. cruzi intracellular amastigotes in H9c2 cells; assay: Rate-of-Kill (RoK) high-content imaging assay, amastigotes per cell (AM/CELL) and curve descriptors; assay type: cell-based, Trypanosoma cruzi; parameters: key to ME_24h / ME_48h / ME_72h: % reduction in parasite burden (cidal response); t50pct_MCC50 / t50pct_Cmax: unit not given here; conditions: for ME_24h: 24h; for ME_48h: 48h; for ME_72h: 72h; for MCCE (Minimal Compound Concentration with Effect): lowest concentration that decreases AUC of AM/CELL versus time by at least 50% vs infected control; for MCC50 (Minimal Cidal Concentration 50%): lowest concentration that reduces 50% of the parasite load measured at zero time; for Emax / ME 24h (maximum effect at 24 hours, intracellular amastigotes): maximum percentage of parasite burden reduction reached by any concentration, 24 hours; for Emax: read-out: ME 24h (maximum effect at 24 hours, intracellular amastigotes); for t50%_Cmax / tlag_Cmax / t50pct_Cmax: at Cmax; for ME_24h (%): maximum effect at 24 h; for ME_24h (%) / ME_48h (%) / ME_72h (%): RoK assay; for ME_48h (%): maximum effect at 48 h; for ME_72h (%): maximum effect at 72 h
Summary of the method: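 H9c2 cardiomyocytes infected with T. cruzi trypomastigotes (MOI 8, 18 h), then compounds tested at 5 μM single shot or 11-point 1/3 dilution from 50 μM. DRAQ5-stained nuclei imaged over a time course. Amastigotes per cell normalised to infected cells at 4 h (0%) and non-infected cells (100%).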

[3] = system: T. cruzi intracellular amastigotes in H9c2 cells; assay: RoK combination assay with BNZ; assay type: cell-based, Trypanosoma cruzi; conditions: 50 μM BNZ
Experimental: The assay was performed following the same experimental procedure mentioned above in the RoK assay. The infected H9c2 cells were treated with final 10 and 50 μM concentrations of BNZ and DMSO before being dispensed into the plates containing the compounds. For the combination with 50 μM BNZ, two plates were incubated for 4 and 24 hours respectively before being fixed. For the combinations with 10 μM BNZ and with DMSO, four plates for each condition were incubated for 4, 24, 48 and 72 hours before being fixed.

Trypanosoma cruzi = conditions: cited from earlier work

Structure (SMILES)	ME (maximum effect) in RoK assay (in words) [2]	tlag (in words) [2]	ME_24h ([2]; figure 5)	ME_48h ([2]; figure 5)	ME_72h ([2]; figure 5)	MCC50 ([2]; RoK curve descriptor) [µM]	MCCE ([2]; RoK curve descriptor) [µM]	t50%_Cmax [2] [h]	tlag_Cmax [2] [h]	t50pct_Cmax ([2]; figure 5)	tlag_Cmax ([2]; figure 5)	t50%_MCC50 ([2]; at MCC50) [h]	tlag_MCC50 ([2]; at MCC50) [h]	t50pct_MCC50 ([2]; at MCC50, figure 5)	tlag_MCC50 ([2]; at MCC50, figure 5)	MCCE ([2]; figure 5)	MCC50 ([2]; figure 5, in µM)	ME_24h (%) [2] [%]	ME_48h (%) [2] [%]	ME_72h (%) [2] [%]	other results
O=C(Cn1ccnc1[N+](=O)[O-])NCc1ccccc1 [Benznidazole, benznidazole, reference compound]	higher ME values close to 100%	short t-lag values	49.8205	84.8832	90.745	31.2	3.9	35.0	5.5	34	4	46.2	8.6	46	7.333	4.172	33.802	49.8	84.9	90.7	average time to interruption of treatment [1]: 26.7 days; MCCE (Minimal Compound Concentration with Effect) ([2]; Fig 2C, average, listed as BNZ): 3.9 µM; MCC50 (Minimal Cidal Concentration 50%) ([2]; Fig 2C, average, listed as BNZ): 31.2 µM; t50pct_MCC50 (t50%_MCC50) ([2]; Fig 2C, average, time to reduce 50% of initial parasite load at MCC50, listed as BNZ): 46.2 h; AM/CELL NORM ([2]; Time 4, figure 4 A): 14.6109; AM/CELL NORM ([2]; Time 24, figure 4 A): 40.5448; AM/CELL NORM ([2]; Time 48, figure 4 A): 53.9104; AM/CELL NORM ([2]; Time 72, figure 4 A): 66.8038; Emax at 50 µM ([2]; Trypanosoma cruzi, H9c2, BNZ at 50 μM, 48 hours, read-out: maximum effect): 100%; Emax ([2]; Trypanosoma cruzi, H9c2): 49.2%; AM/CELL ([3]; no compound 1, 4 hours): 2.023; AM/CELL ([3]; no compound 1, 24 hours): 1.3207
CC[C@@H]([C@H](C)O)n1ncn(-c2ccc(N3CCN(c4ccc(OC[C@@H]5CO[C@@](Cn6cncn6)(c6ccc(F)cc6F)C5)cc4)CC3)cc2)c1=O [Posaconazole, reference compound]	lower ME	longer tlag_MCC50 and tlag_Cmax values	-76.4226	-0.321	50.6685	6.2	0.003	65.9	24.0	65.8667	24	54.2	29.3	61.3333	46.4	0.002879	23.7078	-76.4	-0.32	50.7	MCCE (Minimal Compound Concentration with Effect) ([2]; Fig 2C, average): 0.003 µM; MCC50 (Minimal Cidal Concentration 50%) ([2]; Fig 2C, average, listed as POS): 6.2 µM; t50pct_Cmax (t50%_Cmax) ([2]; Fig 2C, average, time to reduce 50% of initial parasite load at maximum concentration): 65.9 h; AM/CELL NORM ([2]; Time 4, figure 4 A): 5.09; AM/CELL NORM ([2]; Time 24, figure 4 A): -32.2625; AM/CELL NORM ([2]; Time 48, figure 4 A): -0.614; AM/CELL NORM ([2]; Time 72, figure 4 A): 48.3608; Emax ([2]; Trypanosoma cruzi, H9c2): -63%; curative dose in mice (Trypanosoma cruzi): 20 mg/kg/day
Cc1cc2cncn2c(C2CCCCN2C(=O)c2cccs2)n1 (stereo not shown) [TCMDC-143500]	–	–	-103.212	-13.304	53.284	16.7	0.2	72.0	24.0	72	24	72.0	24.0	72	24	0.2058	16.6667	-103.2	-13.3	53.3	AM/CELL NORM ([2]; Time 4, sheet figure 4 A): 8.792; AM/CELL NORM ([2]; Time 24, sheet figure 4 A): -103.212; AM/CELL NORM ([2]; Time 48, sheet figure 4 A): -13.304; AM/CELL NORM ([2]; Time 72, sheet figure 4 A): 50.5477; ME 24h (maximum effect at 24 hours, intracellular amastigotes) [2]: -103.212%
Cc1ccc(C)c(OC2CCN(C(=O)C(C)n3ccnc3)CC2)c1 (stereo not shown) [TCMDC-143481]	–	–	-18.0648	-41.8218	55.4241	5.6	0.6	–	48.0	72	48	72.0	48.0	72	48	0.6173	5.556	-18.1	-41.8	55.4	AM/CELL NORM ([2]; Time 4, sheet figure 4 A): -1.4032; AM/CELL NORM ([2]; Time 24, sheet figure 4 A): -18.0648; AM/CELL NORM ([2]; Time 48, sheet figure 4 A): -41.8218; AM/CELL NORM ([2]; Time 72, sheet figure 4 A): 1.753; ME 24h (maximum effect at 24 hours, intracellular amastigotes) [2]: -18.0648%
